Source: US10792300B2, “Dendritic cell immune receptor activator, method for activating dendritic cell immune receptor, osteoclast formation inhibitor, method for inhibiting osteoclast formation, dendritic cell differentiation/proliferation inhibitor, method for inhibiting dendritic cell differentiation/proliferation, …” (TOKYO UNIVERSITY OF SCIENCE FOUNDATION, priority 2014, dated 2020)

T1: DCIR-Fc (Mus musculus, UniProt Q9QZ15)
T1 construct: covering the extracellular domain (EC) from 70 to 238 at the amino acid level; made in house; host or cells: HEK293T cells
T1 sequence (Q9QZ15 70-238): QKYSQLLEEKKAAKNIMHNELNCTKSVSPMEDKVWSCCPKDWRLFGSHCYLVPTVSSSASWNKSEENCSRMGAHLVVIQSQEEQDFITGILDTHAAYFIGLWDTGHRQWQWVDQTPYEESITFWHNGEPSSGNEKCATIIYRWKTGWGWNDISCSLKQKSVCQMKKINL

B1: IFN-γ: recombinant murine IFN-γ (PeproTech) (protein, UniProt P01580 23-155, looked up)
Interferon gamma: HGTVIESLESLNNYFNSSGIDVEEKSLFLDIWRNWQKDGDMKILQSQIISFYLRLFEVLKDNQAISNNISVIESHLITTFFSNSKAKKDAFMSIAKFEVNNPQVQRQAFNELIRVVHQLLPESSLRKRKRSRC

Tests used:
DCIR-Fc [1] = molecular target: T1, DCIR-Fc; assay: Glycan microarray with evanescent-field fluorescence-assisted detection: binding of DCIR-Fc to glycan probes; parameters: species or system murine; settings: glycan microarray, DCIR-Fc
Source text: (§1) Murine DCIR cDNA, covering the extracellular domain (EC) from 70 to 238 at the amino acid level, was subcloned into pFUSE-hIgG2-Fc2 vector (Invitrogen) at Bgl II site. cDNA coding the extracellular domain was generated with a primer set; sense 5′-[…]-3′ (sequence No. 11) and anti-sense 5′-[…]-3′ (sequence No. 12). Site-directed mutations of the CRD domain, in which glutamic acid and serine were replaced to alanine, were established by KOD-Plus-Mutagenesis Kit (TOYOBO). The following primer set was used for the mutagenesis: E197A sense 5′-[…]-3′(sequence No. 13), anti-sense 5′-[…]-3′(sequence No. 14); S199A sense 5′-[…]-3′(sequence No. 15), anti-sense 5′-[…]-3′ (sequence No. 16); E197A/S199A sense 5′-[…]-3′ (sequence No. 17), anti-sense 5′-[…]-3′(sequence No. 18).
(§2) The plasmids were transferred into HEK293T cells by Lipofectamine LTX (Invitrogen), and the cells were incubated in Opti-MEM (Invitrogen) for 15 days and the medium was changed every 3 days. The Fc-chimeric proteins were purified from collected supernatant by affinity chromatography on Protein A-Sepharose (GE Healthcare UK)
(§3) The glycan-protein interaction was detected in a glycan microarray with an evanescent-field fluorescence-assisted detection system. Briefly, glycan probes, including glycoproteins and glycoside-polyacrylamide (PAA), were immobilized on microarray-grade epoxy-activated glass slides (Schott AG) in triplicate spots using a noncontact microarray printing robot, MicroSys 4000 (Genomic Solutions). The glass slides were incubated at 25° C. for 3 hours and washed with a reaction buffer consisting of 25 mM Tris HCl (pH 7.4) containing 0.8% NaCl, 1% (v/v) Triton-X, 1 mM MnCl2, and 1 mM CaCl2 to remove […], followed by blocking in TBS (25 mM Tris-HCl (pH 7.4) with 0.8% NaCl and 1% BSA) at 20° C. for 1 hour. A protein complex of DCIR-Fc, mutant DCIR-Fc, or Fc with Cy3-labelled anti-human Fc antibodies was formed in a reaction buffer at RT by 20 minutes kept in the dark.
(§4) The protein complex was applied to a glass slide at 100 μl per chamber, and was incubated at 20° C. for 3 hours. Without washing, the binding was detected with an evanescent-field activated fluorescence scanner, SC-Profiler (GP Bioscience), and the data was analyzed by the Array Pro analyzer Ver. 4.5 (Media Cybernetics, Inc.) Subtracted raw intensity from background intensity is net intensity, which is presented as the average±s.d. of triplicate spots.

DCIR-Fc [2] = assay: as above; parameters: species or system murine; settings: for Ca2+ and CRD dependency of DCIR-Fc binding: with or without EDTA, CRD mutants; for binding of mutant DCIR-Fc (CRD mutants) to the glycan: glycan microarray
Source text: as §1, §2, §3, §4

wild-type BMMs [3] = assay: Osteoclast formation by TRAP staining, wild-type BMMs with M-CSF and RANKL; assay type: cell-based, mouse
Procedure: To form M-CSF-dependent bone marrow-derived macrophages, BM cells were isolated by flushing the bone marrow cavity of femurs with α-minimal essential medium (α-MEM) (Gibco, trade name, Life Technologies), supplemented with penicillin (100 units/ml), streptomycin (100 μg/ml) and 10% heat-inactivated fetal bovine serum. Red blood cells were destroyed in a hemolysis buffer (consisting of 140 mM NH4Cl and 17 mM Tris-HCl, pH 7.2) for 10 minutes on ice, and the treated cells were pre-incubated in a 100 mm dish for 1 hour. The non-adherent cells (hematopoietic cells) were harvested and seeded at 50,000 cells per well in 96-well plates in the presence of 20 ng/ml of recombinant human M-CSF (R&D Systems) for 2 days. The cells proliferated in response to M-CSF were defined as BMMs. […]
Adherent cells were fixed in 10% formalin for 3 minutes, followed by further fixation in a fixative buffer consisting of 50% ethanol and 50% acetone for 1 minute. […] TRAP-positive cells with more than 3 or 10 nuclei were counted as multinucleated osteoclasts.
Wild-type and Dcir−/− BMMs were induced to differentiate osteoclasts in the presence of M-CSF and RANKL. […] The number of osteoclasts was determined by TRAP staining. […] Cell lysates were analyzed by western blotting to detect the phosphorylation levels of signal components. […]

wild-type BMMs [4] = assay: Western blotting of M-CSF- and RANKL-mediated signals, wild-type BMMs; assay type: cell-based, mouse; settings: wild-type BMMs pre-treated with NA2
Procedure: (§5) For western blotting of M-CSF- and RANKL-mediated signals, BMMs were re-plated in a 12-well plate at 250,000 cells per well in the presence of 5 ng/ml of M-CSF. 24 hours after the culture, the BMMs were left in a serum-free medium without M-CSF for 6 hours before stimulation. The cells were activated with 20 ng/ml of M-CSF or 100 ng/ml of RANKL for predetermined periods. […]
(§6) Wild-type and Dcir−/− BMMs were induced to differentiate osteoclasts in the presence of M-CSF and RANKL. […] The number of osteoclasts was determined by TRAP staining. […] Cell lysates were analyzed by western blotting to detect the phosphorylation levels of signal components.

Dcir−/− BMMs = assay: Western blotting of M-CSF- and RANKL-mediated signals, Dcir−/− BMMs; assay type: cell-based, mouse; settings: FIG. 49: Dcir−/− BMMs pre-treated with NA2 1 μg/ml for 6 hours
Procedure: as §5, §6

[5] = system: Flt3L-induced dendritic cells (DCs); assay: Pro-inflammatory cytokine production by LPS-activated Flt3L-induced dendritic cells (ELISA); assay type: cell-based, mouse; settings: 1 μg/ml NA2, 24 hours, versus without NA2
Procedure: Flt3L-induced dendritic cells (DCs) were prepared by the following process. Bone marrow cells were isolated from femurs of wild-type mice. Red blood cells were destroyed in a hemolysis buffer (consisting of 140 mM NH4Cl and 17 mM Tris-HCl, pH 7.2) for 10 minutes on ice. The cells were seeded at 1 million cells per well in 24-well plates in the presence of 100 ng/ml of recombinant human Flt3L in a medium containing 10% FBS, antibiotic mixtures, essential amino acids and 2-mercaptoethanol. At day 4, 100 ng/ml of recombinant human Flt3L (Milteny) was added in each well and further cultured for additional 4 days. At day 8, the cells were harvested and re-seeded at 500,000 cells per well in 96-well plates.
The DCs thus obtained were activated with agonistic reagents (LPS) with or without 1 μg/ml of a NA2 for 24 hours. The supernatants were collected and the amounts of pro-inflammatory cytokines (IL-6 and p40) were determined by ELISA. As a result, the amount of pro-inflammatory cytokines were smaller when the DCs were stimulated by LPS in the presence of a NA2 than without the same (FIG. 50). In FIG. 50, the left-side two bars represent the amounts of pro-inflammatory cytokines without LPS stimulation, and the right-side two bars represent the amounts of pro-inflammatory cytokines with LPS stimulation, where the black bars represent the cases in the presence of a NA2.

[6] = system: primary murine osteoblasts; assay: Effect of IFN-γ on osteoblast formation (alizarin red staining, osteogenic gene expression); assay type: cell-based; settings: exogenous addition, dose-dependent
Procedure: Calvarial cells were prepared by sequential digestion followed by a standard method. Briefly, calvavria from 1 to 2-day old neonates were surgically isolated and adherent mesenchymal tissues were trimmed. The neonatal calvaria underwent a first digestion with a degrading solution containing 0.1% collagenase (Wako Pure Chemical Industries) and 0.1% dispase (Roche Diagnostics Japan) for 10 minutes at 37° C. with agitation. The solution was discarded to remove debris, and the remaining calvaria were further digested by the same degrading solution for 1 hour at 37° C. The cells isolated from the serial digestions were suspended in an a-MEM containing 10% FCS, penicillin (100 units/ml) and streptomycin (100 μg/ml), and plated at the concentration of 200,000 cells/well in 12-well plates. Two days after the culture, the cells were incubated in an osteogenic medium (α-MEM supplemented with 10% FBS, 50 μg/ml ascorbic acid (Sigma-Aldrich), 10 mM β-glycerophosphate (Calbiochem) and antibiotics) for 14 days or 21 days, with the medium replaced every 3 days for the entire duration.
Murine osteoblasts were cultured and differentiated according to the protocol as mentioned above. […]
The mineralization formation of osteoblastic cells was detected by the von Kossa method and staining with alizarin red S (sodium alizarin sulphonate). […]

| Molecule | binding of DCIR-Fc to the glycan (DCIR-Fc [1]) | Ca2+ and CRD dependency of DCIR-Fc binding (DCIR-Fc [2]) | osteoclast formation in wild-type BMMs (wild-type BMMs [3]) | Akt phosphorylation in response to M-CSF and RANKL (wild-type BMMs [4]) | MAPKs and IκBα upon M-CSF and RANKL stimuli (Dcir−/− BMMs) | amount of pro-inflammatory cytokine IL-6 [5] | amount of pro-inflammatory cytokine p40 [5] | binding of mutant DCIR-Fc (CRD mutants) to the glycan (DCIR-Fc [2]) | alizarin red staining (ability of osteoblasts to mineralize) [6] | expression of osteogenic genes ([6]; day 14 culture) |
| --- | --- | --- | --- | --- | --- | --- | --- | --- | --- | --- |
| asialo-biantennary N-glycan [NA2] | bound strongly | Ca^2+ and CRD were required | significant decrease | decrease | no effect | smaller | smaller | – | – | – |
| asialo-transferrin: glycoprotein probe on the glycan microarray; transferrin without sialic acid | bound | Ca^2+-dependent | – | – | – | – | – | no binding | – | – |
| heparin | bound | Ca^2+-dependent | – | – | – | – | – | remained bound | – | – |
| B1 | – | – | – | – | – | – | – | – | augmented | augmented |
